pIC50: −log10 of the molar value. Where two headings read alike, the source gives them in different places. Blank lines part the entries; values can stand above or below the compound they belong to.
Experiments:
lipoxygenase = conditions: cited from earlier work
psoriasis = conditions: Allen et al. 1983; cited from earlier work
rheumatoid arthritis = conditions: preliminary observation, Neumann et al. 1983; cited from earlier work
[1] = test system: LTB4 and 5-HETE production; conditions: Stenson et al. 1982; cited from earlier work
[2] = test system: eicosanoid production in human whole blood; experiment: Inhibition of eicosanoid production following calcium ionophore stimulation in human whole blood; type: cell-based; conditions: calcium ionophore 60 μM
Protocol: The eicosanoids, which include the 5-lipoxygenase product LTB4, transLTB4, 20-hydroxyLTB4, 5-HETE, and the 12-lipoxygenase product are extracted from the whole blood following A23187 calcium ionophore stimulation. The extracts are separated by reverse phase high pressure liquid chromatography and quantified by absorbance methods.
Venous human blood is collected into polypropylene tubes containing 1% heparin. The blood is then aliquoted into 4.5 ml volumes and preincubated at 37° C. for 6 minutes in polypropylene tubes (15 ml size). Compound or carrier (10 μL dimethylsulfoxide) is added 6 minutes prior to stimulation. Calcium ionophore (0.5 ml) is added, and the blood incubated for 6 minutes. Prostaglandin B2 (1 nmole) is added, and the blood extracted as described below.
The samples are centrifuged at 1000×g for 15 minutes at 5° C. The plasma is collected, and one volume of acetonitrile is added to the plasma. This suspension is then centrifuged at 1000×g for 15 minutes at 5° C. The supernatant is collected and diluted with 1.5 volumes of chilled aqueous 1% formic acid. This mixture is loaded onto a preconditioned J. T. Baker C18 SPE cartridge (Phillipsburg, N.J.) at a flow rate of 1-2 ml/minute. (The cartridge is preconditioned according to manufacture's recommendations.) The absorbed sample is washed in the following order with three (3) ml each of (i) aqueous 1% formic acid: 1% triethylamine; and (ii) petroleum ether.
The eicosanoids are eluted in 3 ml of methyl formate. The solvent is removed under vacuum. The sample is resuspended in […] of 50% acetonitrile buffered with ammonium acetate. […]
The eicosanoids in the samples are verified by their retention times and their UV absorbance spectra. The peaks are quantified with reference to the internal standard and their absorbance response at their maximum absorbance wavelength.

[3] = biological target: T1, 5-lipoxygenase (5-LO) isolated from extracts of RBL-1 cells (Rattus norvegicus, UniProt P12527); experiment: 5-LO activity, RBL-1 supernatant, oxygen consumption; type: biochemical; conditions: RBL-1 supernatant 5-LO enzyme; 10 uM arachidonic acid, 20° C.; read-out: 5-LO IC-50
T1 construct: isolated from extracts of RBL-1 cells; endogenous in cells; host or cells: RBL-1 cells (cell extract / supernatant)
T1 sequence (P12527 1-673): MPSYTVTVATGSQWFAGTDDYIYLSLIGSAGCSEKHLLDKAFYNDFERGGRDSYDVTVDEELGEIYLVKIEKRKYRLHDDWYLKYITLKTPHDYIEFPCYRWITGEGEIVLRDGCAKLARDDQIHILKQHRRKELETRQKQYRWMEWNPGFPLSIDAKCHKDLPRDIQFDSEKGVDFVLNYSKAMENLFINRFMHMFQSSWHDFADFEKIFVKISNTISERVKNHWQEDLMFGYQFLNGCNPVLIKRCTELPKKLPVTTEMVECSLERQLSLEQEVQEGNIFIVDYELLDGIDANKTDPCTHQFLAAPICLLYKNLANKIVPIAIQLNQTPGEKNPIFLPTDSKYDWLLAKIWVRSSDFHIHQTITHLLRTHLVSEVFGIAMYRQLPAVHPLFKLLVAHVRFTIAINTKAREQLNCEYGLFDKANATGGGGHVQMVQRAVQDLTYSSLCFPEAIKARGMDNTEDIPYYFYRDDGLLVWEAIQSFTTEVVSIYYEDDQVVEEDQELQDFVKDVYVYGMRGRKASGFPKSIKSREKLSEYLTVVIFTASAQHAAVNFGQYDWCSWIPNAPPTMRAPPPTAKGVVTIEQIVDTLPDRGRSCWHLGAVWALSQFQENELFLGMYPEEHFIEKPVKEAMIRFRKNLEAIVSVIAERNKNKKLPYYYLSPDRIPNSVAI
Protocol: The 5-lipoxygenase (5-LO) was isolated from extracts of RBL-1 cells. The assay for assessing inhibition of the 5-LO activity was a continuous assay which monitored the consumption of oxygen (O2). The cell extract (100 ug) was preincubated with the inhibitor or its vehicle in 25 mM BisTris buffer (pH 7.0) that contained 1 mM EDTA, 1 mM ATP, 150 mM NaCl and 5% ethylene glycol for 2 minutes at 20° C. (total volume 2.99 ml). Arachidonic acid (10 uM) and CaCl2 (2 mM) were added to start the reaction, and the decrease in O2 concentration followed with time using a Clark-type electrode and the Yellow Spring O2 monitor (type 53) (Yellow Springs, Ohio). The optimum velocity was calculated from the progress curves. All compounds were dissolved in ethanol with the final concentration of ethanol being 1% in the assay. Drug-induced effects on enzyme activities are described as the concentration of drug causing a 50% inhibition of oxygen consumption (IC50).

[4] = test system: human monocyte PGE2 production (cyclooxygenase activity); experiment: PGE2 production from human monocytes in vitro (A23187 stimulated, RIA); type: cell-based; conditions: for pIC50: Homo sapiens, Monocyte
Protocol: (§1) Human monocytes were prepared from leukosource packs supplied by the American Red Cross. The leukosource packs were fractionated by a two-step procedure described by F. Colatta et al. (J. Immunology 132: 936, 1984) that uses sedimentation on Ficoll followed by sedimentation on Percoll. The monocyte fraction that results from this technique was composed of 80-90% monocytes with the remainder being neutrophils and lymphocytes. In addition, significant number of platelets are present.
(§2) The monocytes (10^6 cells) were placed into polypropylene tubes and used as a suspended culture. The assay buffer consisted of RPMI 1640 buffer, 2 mM glutamine, 2.5 mM HEPES and 2 mM CaCl2 (total volume 0.475 ml). Compounds (0.005 ml) were added in DMSO, and the cells were preincubated for 10 minutes at 37° C. with constant agitation. A23187 (2 uM) was used to stimulate the cells. After an additional 10 minutes, the buffer was collected by centrifugation (2500×g for 15 minutes), and stored at -70° C. until assayed. LTB4 production was measured by radioimmunassay which was performed according to the manufacturer's (Advanced Magnetics, Boston, Mass.) instructions. PGE2 was determined using an RIA kit supplied by New England Nuclear (Boston, Mass.).

[5] = test system: 5-LO activity (LTB4) in mouse whole blood; experiment: Ex vivo mouse blood eicosanoid assay (LTB4, A23187 stimulated); type: in vivo, mouse (CD1); conditions: po, per os; for inhibition at 10 mg/kg: read-out: ex vivo, % inh., heading: ex vivo, % inh., 30 min pre-treatment, mouse whole blood, A23187 60 uM
Protocol: In experiments when mice were used they were CD1 mice obtained from Charles River Breeding Laboratories, and within a single experiment the mice were age-matched. Their weight range was from 25 to 42 g. The test groups generally contained 3-6 animals.
Mice were pre-treated per os with vehicle or a test compound (dissolved in dimethylacetamide and diluted 1 to 10 with sesame oil) 30 minutes prior to removal of blood. The 5-lipoxygenase product LTB4, was extracted from whole blood following A23187 stimulation. Aliquots of pooled heparinized mouse blood (1 ml each aliquot) from male CD1 mice (Charles River) were placed into 4 ml polypropylene tubes. The tubes were preincubated for about five minutes at 37° C. A23187 (60 uM) was added to stimulate eicosanoid production. Several aliquots of blood were not stimulated and, thus, provided background levels for eicosanoid production. All tubes were incubated for about 30 minutes at 37° C. The blood samples were centrifuged at 400×g for about 15 minutes, and the plasma recovered for extraction. One volume of chilled acetonitrile was added to all at 5° C. The supernatants were recovered and diluted with 1% formic acid: 1% triethylamine to achieve a final concentration of 20% acetonitrile. These supernatants were then loaded onto the extraction cartridge that had been conditioned according to the Manufacturer's instructions (Solid Phase Extraction Columns, J. T. Baker, C18 3 ml size). The samples were washed with 3 ml of 1% formic acid: 1% triethylamine, air dried, and then washed with 3 ml of petroleum ether. After air drying again, the samples were eluted with methyl formate. The eluents were concentrated under vacuum. The concentrates were resuspended in 30% acetonitrile buffered with 50 mM ammonium acetate ([…]). The recovery of LTB4 was 60%. The 300 ul concentrates were assayed by radioreceptor assay for LTB4 by labortatory protocol.
Mean values for groups were calculated and percent inhibition was determined between the vehicle control mean and test group. […]

[6] = test system: human monocyte LTB4 production; experiment: LTB4 production from human monocytes in vitro (A23187 stimulated, RIA); type: cell-based
Protocol: as §1, §2

myocardial infarction = conditions: dogs, Mullane et al. 1984; cited from earlier work

Compound: CC(C(=O)O)c1ccc2oc(-c3ccc(Cl)cc3)nc2c1 (stereo not shown) [benoxaprofen]
- in vitro lipoxygenase inhibitory activity (lipoxygenase): in vitro lipoxygenase inhibitory activity
- effect on psoriasis (psoriasis): promising effect

Compound: O=C(O)c1cc(/N=N/c2ccc(S(=O)(=O)Nc3ccccn3)cc2)ccc1O [Sulfasalazine]
- efficacy in rheumatoid arthritic patients (rheumatoid arthritis): efficacy, including remission
- inhibition of LTB4 and 5-HETE production in vitro [1]: inhibit LTB4 and 5-HETE production in vitro

Compound: NC1=NN(c2cccc(C(F)(F)F)c2)CC1 [BW755-C]
- area of infarction following coronary occlusion (myocardial infarction): reduced

Continued, in another order:

- pIC50 [2]: < 5.00
- pIC50 [3]: 5.10
Compound: NC(=O)N(O)C1COc2ccc3ccccc3c21 (stereo not shown) [Example 3]

- pIC50 [2]: < 5.00
- pIC50 ([4]; A23187 2 uM, Table 1, read-out: human monocyte-IC50, PGE2): < 4.52
- pIC50 ([4]; read-out: IC50, production of the prostaglandin PGE2 (human monocyte)): < 4.52
- cyclooxygenase activity as indicated by production of PGE2 ([4]; result in words): did not inhibit cyclooxygenase activity
- pIC50 [3]: 5.38
- pIC50 ([6]; A23187 2 uM, Table 1, read-out: human monocyte-IC50, LTB4): 5.80
- pIC50 ([6]; read-out: IC50, production of LTB4 in the human monocyte): 5.80
Compound: NC(=O)N(O)C1CCCc2c1ccc1ccccc21 (stereo not shown) [Example 1, N-1-(1,2,3,4-Tetrahydrophenanthrenyl)-N-hydroxyurea]
- ED50 ([5]; 0.5 h, mouse whole blood ex vivo, A23187, linear regression, read-out: ED50 (inhibition of 5-LO activity ex vivo)): 2.5 mg/kg
- inhibition at 10 mg/kg [5]: 86%

- pIC50 [2]: < 5.00
- pIC50 [3]: 5.25
Compound: NC(=O)N(O)C1COc2c1ccc1ccccc21 (stereo not shown) [Example 2]
- inhibition at 10 mg/kg [5]: 92%

From US5140047A, “Lipoxygenase inhibitors” (SmithKline Beecham Corporation, priority 1991, dated 1992)
